Measured values reported in patent US20090022714A1, “Combination methods of inhibiting tumor growth with a vascular endothelial growth factor receptor antagonist” (ImClone Systems, Inc., priority 2001, published 2009).

Biological target: T1, KDR (VEGFR-2) (Homo sapiens, UniProt P35968)
T1 construct: the cDNA for KDR (VEGFR-2) extracellular domain is fused in-frame with the cDNA for human placental AP; made in house; host or cells: stably transfected NIH 3T3 cells, purified from supernatant on anti-AP antibody
T1 sequence (P35968 20-764 limits assumed): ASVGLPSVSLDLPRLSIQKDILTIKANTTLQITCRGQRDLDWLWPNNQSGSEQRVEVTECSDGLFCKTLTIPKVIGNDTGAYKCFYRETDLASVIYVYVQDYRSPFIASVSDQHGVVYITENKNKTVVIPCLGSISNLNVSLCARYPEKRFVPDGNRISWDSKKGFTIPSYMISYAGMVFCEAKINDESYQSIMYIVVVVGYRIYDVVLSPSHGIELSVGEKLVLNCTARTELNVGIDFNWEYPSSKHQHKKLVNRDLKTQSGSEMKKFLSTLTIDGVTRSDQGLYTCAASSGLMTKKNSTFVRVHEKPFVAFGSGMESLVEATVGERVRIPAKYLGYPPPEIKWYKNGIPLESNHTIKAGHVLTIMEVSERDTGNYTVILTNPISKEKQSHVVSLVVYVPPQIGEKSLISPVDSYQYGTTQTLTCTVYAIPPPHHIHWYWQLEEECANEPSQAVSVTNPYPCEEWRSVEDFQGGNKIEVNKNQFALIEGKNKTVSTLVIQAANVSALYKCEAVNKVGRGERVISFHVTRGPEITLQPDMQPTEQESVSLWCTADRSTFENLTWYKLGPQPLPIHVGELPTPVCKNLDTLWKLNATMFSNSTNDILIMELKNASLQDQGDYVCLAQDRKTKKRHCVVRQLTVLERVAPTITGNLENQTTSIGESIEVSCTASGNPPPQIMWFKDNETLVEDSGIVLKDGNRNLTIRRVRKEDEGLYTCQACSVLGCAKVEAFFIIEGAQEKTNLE
Test: BIAcore analysis of p1C11 scFv, c-p1C11 and VEGF
Type: binding
Procedure: The binding kinetics of antibodies to KDR (VEGFR-2) were measured using BIAcore biosensor (Pharmacia Biosensor). […] Sensorgrams were obtained at each concentration and were evaluated using a program, BIA Evaluation 2.0, to determine the rate constants kon and koff. Kd was calculated as the ratio of rate constants koff/kon.

VEGF [reference compound]
koff: 1.81 10^−4 s^−1 | kon: 1.87 10^5 M^−1s^−1
